Test results taken from ChEMBL document CHEMBL3885861, “Open TG-GATES”.

Organism: Rattus norvegicus
Experiment: Open TG-GATES - Regimen: Single
Format: toxicity, organism-based, Sprague-Dawley
Design: regimen Single, gender Male, age 6 weeks
Details: in vivo, po, 750 mg/kg, route gavage, dose level High; for APTT / Bas / Eos / Fbg / Hb / Ht / Lym / MCH / MCHC / MCV / Mono / Neu / PT / Plat / RBC / Ret / WBC: tissue Blood; for KIDNEY_L / KIDNEY_R / KIDNEY_TOTAL: tissue Kidney; for LIVER: tissue Liver; for A/G / ALP / ALT / AST / BUN / CRE / Ca / Cl / DBIL / GLC / IP / K / LDH / Na / PL / RALB / TBIL / TC / TG / TP / gamma-GTP: tissue Plasma

## CN(C/C=C/C#CC(C)(C)C)Cc1cccc2ccccc12 [TERBINAFINE]
3 h
  TERMINAL_BW: 226.5 g
  APTT: 19.1 s
  Bas: 0.4%
  Eos: 0.8%
  Fbg: 220.4 mg/dL
  Hb: 12.9 g/dL
  Ht: 38.4%
  Lym: 76.8%
  MCH: 21.1 pg
  MCHC: 33.5%
  MCV: 63 fL
  Mono: 1.8%
  Neu: 19.8%
  PT: 12.3 s
  Plat: 120 x10_4/uL
  RBC: 610.2 x10_4/ul
  Ret: 7.2%
  WBC: 85.9 x10_2/uL
  KIDNEY_L: 1 g
  KIDNEY_R: 1 g
  KIDNEY_TOTAL: 2 g
  LIVER: 9.8 g
  A/G: 1.7
  ALP: 978.4 IU/L
  ALT: 35.6 IU/L
  AST: 69.2 IU/L
  BUN: 9.8 mg/dL
  CRE: 0.4 mg/dL
  Ca: 10.6 mg/dL
  Cl: 103 meq/L
  DBIL: 0.08 mg/dL
  GLC: 204.6 mg/dL
  IP: 9.1 mg/dL
  K: 3.7 meq/L
  LDH: 180.8 IU/L
  Na: 141.6 meq/L
  PL: 128.6 mg/dL
  RALB: 3.4 g/dL
  TBIL: 0.1 mg/dL
  TC: 76.4 mg/dL
  TG: 36 mg/dL
  TP: 5.5 g/dL
  gamma-GTP: 1 IU/L
6 h
  TERMINAL_BW: 226.5 g
  APTT: 18 s
  Bas: 0.6%
  Eos: 0.8%
  Fbg: 217.6 mg/dL
  Hb: 12.8 g/dL
  Ht: 37.9%
  Lym: 77.6%
  MCH: 21.6 pg
  MCHC: 33.8%
  MCV: 63.8 fL
  Mono: 3%
  Neu: 18%
  PT: 12.2 s
  Plat: 124.3 x10_4/uL
  RBC: 595 x10_4/ul
  Ret: 7.2%
  WBC: 79 x10_2/uL
  KIDNEY_L: 1 g
  KIDNEY_R: 1 g
  KIDNEY_TOTAL: 2 g
  LIVER: 9.7 g
  A/G: 1.7
  ALP: 823.4 IU/L
  ALT: 35.4 IU/L
  AST: 70 IU/L
  BUN: 12.4 mg/dL
  CRE: 0.4 mg/dL
  Ca: 10.5 mg/dL
  Cl: 103.2 meq/L
  DBIL: 0.082 mg/dL
  GLC: 206.2 mg/dL
  IP: 9.6 mg/dL
  K: 3.9 meq/L
  LDH: 174.2 IU/L
  Na: 141 meq/L
  PL: 121.2 mg/dL
  RALB: 3.5 g/dL
  TBIL: 0.1 mg/dL
  TC: 68.2 mg/dL
  TG: 36.6 mg/dL
  TP: 5.5 g/dL
  gamma-GTP: 0.8 IU/L
9 h
  TERMINAL_BW: 225.4 g
  APTT: 18.8 s
  Bas: 0.6%
  Eos: 1%
  Fbg: 221.6 mg/dL
  Hb: 12.8 g/dL
  Ht: 38.2%
  Lym: 73.2%
  MCH: 21.3 pg
  MCHC: 33.6%
  MCV: 63.6 fL
  Mono: 2.6%
  Neu: 22.6%
  PT: 12.3 s
  Plat: 114 x10_4/uL
  RBC: 601.8 x10_4/ul
  Ret: 6.8%
  WBC: 85 x10_2/uL
  KIDNEY_L: 1 g
  KIDNEY_R: 1 g
  KIDNEY_TOTAL: 2 g
  LIVER: 9.3 g
  A/G: 1.7
  ALP: 1027.6 IU/L
  ALT: 32.8 IU/L
  AST: 64.2 IU/L
  BUN: 12.2 mg/dL
  CRE: 0.4 mg/dL
  Ca: 10 mg/dL
  Cl: 103.6 meq/L
  DBIL: 0.07 mg/dL
  GLC: 205.6 mg/dL
  IP: 10.4 mg/dL
  K: 4 meq/L
  LDH: 163.2 IU/L
  Na: 141.2 meq/L
  PL: 112.8 mg/dL
  RALB: 3.4 g/dL
  TBIL: 0.1 mg/dL
  TC: 57.6 mg/dL
  TG: 24.4 mg/dL
  TP: 5.4 g/dL
  gamma-GTP: 1 IU/L
24 h
  TERMINAL_BW: 233.7 g
  APTT: 18.6 s
  Bas: 0.8%
  Eos: 1%
  Fbg: 216.6 mg/dL
  Hb: 13.1 g/dL
  Ht: 38.5%
  Lym: 78.8%
  MCH: 21.7 pg
  MCHC: 34%
  MCV: 64.1 fL
  Mono: 3.4%
  Neu: 15.6%
  PT: 12.3 s
  Plat: 122.8 x10_4/uL
  RBC: 601.6 x10_4/ul
  Ret: 6.4%
  WBC: 81.1 x10_2/uL
  KIDNEY_L: 1.1 g
  KIDNEY_R: 1.1 g
  KIDNEY_TOTAL: 2.2 g
  LIVER: 10.8 g
  A/G: 1.8
  ALP: 1101 IU/L
  ALT: 51.6 IU/L
  AST: 89.4 IU/L
  BUN: 13.2 mg/dL
  CRE: 0.4 mg/dL
  Ca: 10.3 mg/dL
  Cl: 103.6 meq/L
  DBIL: 0.076 mg/dL
  GLC: 203.4 mg/dL
  IP: 8.6 mg/dL
  K: 3.7 meq/L
  LDH: 203.6 IU/L
  Na: 141.6 meq/L
  PL: 106 mg/dL
  RALB: 3.6 g/dL
  TBIL: 0.1 mg/dL
  TC: 57.8 mg/dL
  TG: 29.2 mg/dL
  TP: 5.5 g/dL
  gamma-GTP: 1.8 IU/L
